The record followed here is ChEMBL document CHEMBL1201862, “PubChem BioAssay data set” (2004).

Active and inactive are the calls of the source.

Test [1] can be described thus: microbe, parasite or virus in culture. The class given is functional. As to conditions: Mycobacterium tuberculosis.
In test [2] the test system is Vero. Briefly: cells. The format is functional, cell-based. Particulars: Chlorocebus sabaeus.
In test [3] the target is T1, Ubiquitin-conjugating enzyme E2 N (Homo sapiens, UniProt P61088).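 Also: Dose-response confirmation in a TR-FRET assay detecting UBC13-driven polyubiquitin chain formation, inhibition measured.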
T1 sequence (P61088 whole entry): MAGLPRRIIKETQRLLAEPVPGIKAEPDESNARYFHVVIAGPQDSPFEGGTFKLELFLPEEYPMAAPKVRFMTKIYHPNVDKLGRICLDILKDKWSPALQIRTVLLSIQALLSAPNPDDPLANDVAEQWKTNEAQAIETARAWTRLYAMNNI
The format is functional.

In test [4] the test system is Vero. Briefly: cells. The format is functional. As to conditions: Chlorocebus sabaeus.
Test [5] is described as follows: Counterscreen for AddAB inhibitors: absorbance-based bacterial cell-based high throughput dose response assay for inhibitors of bacterial viability. [Related pubchem assays (depositor defined):AID435030, AID449728, AID449731, AID488942, AID488955, AID488956]. The class given is functional.
Test [6] addresses T2, Heat shock factor protein 1 (Mus musculus, UniProt P38532).
T2 sequence (P38532 whole entry): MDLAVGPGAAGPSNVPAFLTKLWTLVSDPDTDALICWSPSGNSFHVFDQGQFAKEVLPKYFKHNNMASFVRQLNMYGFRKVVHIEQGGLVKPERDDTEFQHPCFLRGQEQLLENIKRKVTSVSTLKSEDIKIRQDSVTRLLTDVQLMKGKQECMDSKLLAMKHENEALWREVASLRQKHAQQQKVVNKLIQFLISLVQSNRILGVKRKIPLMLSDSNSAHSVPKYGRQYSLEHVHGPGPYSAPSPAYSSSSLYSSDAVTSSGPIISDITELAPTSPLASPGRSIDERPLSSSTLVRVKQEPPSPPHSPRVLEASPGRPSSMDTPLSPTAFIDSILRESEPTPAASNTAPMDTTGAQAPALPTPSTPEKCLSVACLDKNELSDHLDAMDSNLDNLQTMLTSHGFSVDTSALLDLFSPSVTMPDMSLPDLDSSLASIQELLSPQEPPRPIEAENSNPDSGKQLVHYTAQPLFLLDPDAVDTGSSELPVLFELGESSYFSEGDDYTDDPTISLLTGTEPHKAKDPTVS
Briefly: decrease of HSF1-responsive luciferase luminescence – cell-based, NIH3T3, dose retest, confirmation (AID 2382).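 Also: NIH3T3 fibroblasts with HSF1-driven luciferase reporter stressed by proteasome inhibitor MG132; luminescence from HSF1-driven luciferase expression after 8 hours of MG132 stress.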 The class given is functional.

The next test has as its target T3, Exodeoxyribonuclease V (Escherichia coli (strain K12), UniProt P04993+P07648+P08394).
T3 sequence (P04993 whole entry): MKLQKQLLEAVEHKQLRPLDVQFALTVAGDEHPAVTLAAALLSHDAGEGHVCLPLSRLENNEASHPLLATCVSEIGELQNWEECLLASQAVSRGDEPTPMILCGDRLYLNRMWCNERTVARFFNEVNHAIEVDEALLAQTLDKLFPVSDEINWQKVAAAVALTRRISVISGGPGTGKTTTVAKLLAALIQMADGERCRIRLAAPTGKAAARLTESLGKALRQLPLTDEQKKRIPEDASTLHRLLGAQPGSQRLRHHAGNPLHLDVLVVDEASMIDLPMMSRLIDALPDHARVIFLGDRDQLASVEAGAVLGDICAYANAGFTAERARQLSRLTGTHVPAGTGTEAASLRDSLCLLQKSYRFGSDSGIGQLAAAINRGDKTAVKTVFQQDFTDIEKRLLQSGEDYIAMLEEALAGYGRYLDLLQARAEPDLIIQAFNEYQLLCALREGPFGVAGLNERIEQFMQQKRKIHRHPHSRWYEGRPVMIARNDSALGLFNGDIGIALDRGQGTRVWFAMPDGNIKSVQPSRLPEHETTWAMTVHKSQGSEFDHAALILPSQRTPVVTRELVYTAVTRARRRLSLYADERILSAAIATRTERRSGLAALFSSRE
T3 sequence (P07648 whole entry): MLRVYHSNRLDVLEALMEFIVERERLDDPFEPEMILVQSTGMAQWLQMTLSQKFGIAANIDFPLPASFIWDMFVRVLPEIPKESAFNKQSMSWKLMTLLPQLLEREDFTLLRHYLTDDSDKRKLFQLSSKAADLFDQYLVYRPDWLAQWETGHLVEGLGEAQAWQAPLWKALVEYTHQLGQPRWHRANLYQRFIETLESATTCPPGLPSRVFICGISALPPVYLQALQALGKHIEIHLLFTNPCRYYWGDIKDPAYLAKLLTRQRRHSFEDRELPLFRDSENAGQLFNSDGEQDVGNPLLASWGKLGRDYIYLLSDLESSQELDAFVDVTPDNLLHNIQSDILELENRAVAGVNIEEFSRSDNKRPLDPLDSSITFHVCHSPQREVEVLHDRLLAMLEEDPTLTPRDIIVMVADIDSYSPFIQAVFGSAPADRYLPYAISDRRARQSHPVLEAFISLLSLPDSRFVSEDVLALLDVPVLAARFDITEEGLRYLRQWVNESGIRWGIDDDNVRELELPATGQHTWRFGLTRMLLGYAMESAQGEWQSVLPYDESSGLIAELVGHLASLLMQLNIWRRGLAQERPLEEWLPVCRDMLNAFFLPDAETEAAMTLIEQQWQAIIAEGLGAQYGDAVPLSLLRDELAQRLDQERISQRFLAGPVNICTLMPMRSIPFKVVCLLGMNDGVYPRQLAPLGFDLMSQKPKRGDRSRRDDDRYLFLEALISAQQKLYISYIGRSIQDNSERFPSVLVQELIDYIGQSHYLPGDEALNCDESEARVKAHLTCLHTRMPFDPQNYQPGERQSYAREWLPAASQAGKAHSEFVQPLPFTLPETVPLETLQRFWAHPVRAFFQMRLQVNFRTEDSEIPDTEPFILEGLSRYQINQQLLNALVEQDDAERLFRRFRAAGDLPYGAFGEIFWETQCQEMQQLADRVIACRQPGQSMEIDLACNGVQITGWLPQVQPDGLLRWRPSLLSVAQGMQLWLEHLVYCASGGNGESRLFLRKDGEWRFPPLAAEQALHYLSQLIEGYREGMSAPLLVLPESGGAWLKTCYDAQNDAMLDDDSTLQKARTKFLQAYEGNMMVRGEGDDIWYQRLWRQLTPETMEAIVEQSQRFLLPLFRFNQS
T3 sequence (P08394 whole entry): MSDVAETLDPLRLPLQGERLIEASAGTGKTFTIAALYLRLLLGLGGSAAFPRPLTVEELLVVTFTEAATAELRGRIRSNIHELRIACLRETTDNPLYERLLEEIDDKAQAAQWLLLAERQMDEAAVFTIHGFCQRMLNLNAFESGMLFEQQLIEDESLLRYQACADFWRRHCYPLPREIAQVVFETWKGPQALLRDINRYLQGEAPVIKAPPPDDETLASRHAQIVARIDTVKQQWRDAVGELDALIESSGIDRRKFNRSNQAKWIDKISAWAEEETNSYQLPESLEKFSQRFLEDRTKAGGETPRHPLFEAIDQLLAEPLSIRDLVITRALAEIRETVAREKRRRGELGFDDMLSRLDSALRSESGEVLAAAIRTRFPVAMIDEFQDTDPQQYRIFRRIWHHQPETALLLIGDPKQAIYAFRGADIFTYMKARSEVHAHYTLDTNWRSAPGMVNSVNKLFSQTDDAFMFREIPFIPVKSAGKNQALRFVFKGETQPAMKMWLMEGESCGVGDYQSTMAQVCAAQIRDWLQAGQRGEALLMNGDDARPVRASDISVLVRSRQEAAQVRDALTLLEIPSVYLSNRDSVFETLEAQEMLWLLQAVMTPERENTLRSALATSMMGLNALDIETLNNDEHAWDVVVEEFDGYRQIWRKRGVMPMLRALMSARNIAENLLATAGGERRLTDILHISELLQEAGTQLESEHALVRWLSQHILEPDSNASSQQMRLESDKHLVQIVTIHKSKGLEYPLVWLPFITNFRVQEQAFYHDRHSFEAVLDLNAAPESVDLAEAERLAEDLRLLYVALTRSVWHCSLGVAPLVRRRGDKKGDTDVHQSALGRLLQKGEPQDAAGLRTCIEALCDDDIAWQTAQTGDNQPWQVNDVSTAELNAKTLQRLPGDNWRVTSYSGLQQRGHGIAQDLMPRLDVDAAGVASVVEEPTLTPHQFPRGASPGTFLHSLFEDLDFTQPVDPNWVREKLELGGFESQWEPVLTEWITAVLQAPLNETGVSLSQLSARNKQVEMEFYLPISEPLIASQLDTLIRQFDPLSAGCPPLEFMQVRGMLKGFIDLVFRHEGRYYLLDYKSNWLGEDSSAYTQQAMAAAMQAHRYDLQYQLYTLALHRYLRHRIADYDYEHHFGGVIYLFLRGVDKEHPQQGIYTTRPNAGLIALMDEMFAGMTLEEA
The experiment in a line: RecBCD inhibition via phage-restricted bacterial growth – absorbance, V66 E. coli, mutant T4 phage, counter-screen for AddAB inhibitor project, dose response (AID 492957). The format is functional, cell-based, Escherichia coli str. K-12 substr. MG1655.

Test [7] has as its target Voltage-dependent T-type calcium channel subunit alpha-1H (Homo sapiens, UniProt O95180). The class given is functional.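 Also: channel activity triggered by adding a high calcium stimulation buffer.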
For another test, the target named is T4, ORF 73 (Human herpesvirus 8, UniProt O40947).
T4 sequence (O40947 whole entry): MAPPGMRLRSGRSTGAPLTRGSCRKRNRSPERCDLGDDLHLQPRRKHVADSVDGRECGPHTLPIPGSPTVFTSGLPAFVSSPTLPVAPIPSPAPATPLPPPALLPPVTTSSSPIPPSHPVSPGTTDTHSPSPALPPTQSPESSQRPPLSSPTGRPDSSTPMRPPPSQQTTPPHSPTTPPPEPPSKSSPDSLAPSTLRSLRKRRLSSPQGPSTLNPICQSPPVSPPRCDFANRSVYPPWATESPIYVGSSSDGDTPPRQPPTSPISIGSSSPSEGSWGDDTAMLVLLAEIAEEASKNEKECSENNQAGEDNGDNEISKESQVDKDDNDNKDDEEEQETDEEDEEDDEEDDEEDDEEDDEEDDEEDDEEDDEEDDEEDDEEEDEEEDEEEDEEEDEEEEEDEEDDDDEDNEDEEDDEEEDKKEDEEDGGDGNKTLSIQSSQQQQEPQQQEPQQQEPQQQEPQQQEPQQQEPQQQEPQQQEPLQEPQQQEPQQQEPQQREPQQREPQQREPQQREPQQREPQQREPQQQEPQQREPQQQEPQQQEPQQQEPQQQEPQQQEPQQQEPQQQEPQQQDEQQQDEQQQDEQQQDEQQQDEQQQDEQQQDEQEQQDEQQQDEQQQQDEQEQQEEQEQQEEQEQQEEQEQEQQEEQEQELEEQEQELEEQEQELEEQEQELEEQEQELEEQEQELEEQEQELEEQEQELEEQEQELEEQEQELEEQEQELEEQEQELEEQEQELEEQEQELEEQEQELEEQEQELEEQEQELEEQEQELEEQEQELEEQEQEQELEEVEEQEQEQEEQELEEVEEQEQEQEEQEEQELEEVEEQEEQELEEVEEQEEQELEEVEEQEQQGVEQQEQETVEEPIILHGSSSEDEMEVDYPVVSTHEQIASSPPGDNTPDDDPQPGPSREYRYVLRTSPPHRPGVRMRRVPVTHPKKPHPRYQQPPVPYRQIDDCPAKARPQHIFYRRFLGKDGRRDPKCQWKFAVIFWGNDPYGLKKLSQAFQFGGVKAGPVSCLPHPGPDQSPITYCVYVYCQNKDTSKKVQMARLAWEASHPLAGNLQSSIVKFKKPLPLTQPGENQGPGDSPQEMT
The experiment in a line: KSHV LANA DNA-binding disruption – biochemical, fluorescence polarization, cherry-picked samples, dose response (AID 504725).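 Also: fluorescence polarization of a labeled DNA duplex reporting LANA DNA binding; potency is for inhibitors that block LANA binding to the DNA.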 Also on record: species or system Human gammaherpesvirus 8.

In another test the target is Keap1/Nrf2 (Homo sapiens, UniProt Q14145). Briefly: disruptors of Keap1 binding to Nrf2 peptide – biochemical, fluorescence polarization, cherry-picked samples, dose response (AID 588683).
Test [8] deals with HEK293. The experiment in a line: cells. As to conditions: Homo sapiens.
In test [9] the test system is HEK293. Briefly: cells. Particulars: Homo sapiens. The source holds these as a separate data set.
Test [10] addresses T5, Mannose-6-phosphate isomerase (Homo sapiens, UniProt P34949).
T5 sequence (P34949 whole entry): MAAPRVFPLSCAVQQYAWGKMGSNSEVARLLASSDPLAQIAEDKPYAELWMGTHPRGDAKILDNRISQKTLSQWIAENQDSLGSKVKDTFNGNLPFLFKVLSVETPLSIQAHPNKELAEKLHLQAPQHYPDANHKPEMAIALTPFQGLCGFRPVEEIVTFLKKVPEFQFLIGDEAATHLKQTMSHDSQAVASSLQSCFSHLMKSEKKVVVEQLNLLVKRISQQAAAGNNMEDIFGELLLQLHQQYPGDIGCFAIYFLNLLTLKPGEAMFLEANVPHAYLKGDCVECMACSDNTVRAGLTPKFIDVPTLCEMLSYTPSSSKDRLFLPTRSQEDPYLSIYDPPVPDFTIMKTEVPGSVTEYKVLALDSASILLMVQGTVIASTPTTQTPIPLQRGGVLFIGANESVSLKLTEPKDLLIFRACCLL
Briefly: phosphomannose isomerase inhibition – biochemical, fluorescence intensity, confirmation (AID 1535).

Test [11] has as its target T5, Mannose-6-phosphate isomerase. Briefly: MPI inhibition at elevated mannose 6-phosphate – biochemical, fluorescence intensity, high mannose 6-phosphate, primary screen (AID 1220).

Chain of Keap1/Nrf2 (Q16236 whole entry): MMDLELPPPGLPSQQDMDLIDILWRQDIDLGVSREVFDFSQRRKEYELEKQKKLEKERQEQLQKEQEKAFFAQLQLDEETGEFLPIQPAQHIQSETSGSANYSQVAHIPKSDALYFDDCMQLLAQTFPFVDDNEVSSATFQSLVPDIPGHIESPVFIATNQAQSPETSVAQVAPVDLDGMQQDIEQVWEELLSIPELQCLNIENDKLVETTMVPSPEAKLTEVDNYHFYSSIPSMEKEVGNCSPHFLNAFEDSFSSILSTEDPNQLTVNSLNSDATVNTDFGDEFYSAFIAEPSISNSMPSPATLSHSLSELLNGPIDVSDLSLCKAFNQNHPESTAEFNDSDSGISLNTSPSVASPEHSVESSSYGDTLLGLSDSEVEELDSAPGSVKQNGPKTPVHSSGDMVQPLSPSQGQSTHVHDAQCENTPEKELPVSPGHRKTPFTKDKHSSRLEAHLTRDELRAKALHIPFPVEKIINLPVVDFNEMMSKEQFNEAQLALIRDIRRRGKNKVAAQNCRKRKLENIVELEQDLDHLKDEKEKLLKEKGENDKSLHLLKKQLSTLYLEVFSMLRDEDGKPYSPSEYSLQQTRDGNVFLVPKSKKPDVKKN
Chain of Keap1/Nrf2 (Q14145 whole entry): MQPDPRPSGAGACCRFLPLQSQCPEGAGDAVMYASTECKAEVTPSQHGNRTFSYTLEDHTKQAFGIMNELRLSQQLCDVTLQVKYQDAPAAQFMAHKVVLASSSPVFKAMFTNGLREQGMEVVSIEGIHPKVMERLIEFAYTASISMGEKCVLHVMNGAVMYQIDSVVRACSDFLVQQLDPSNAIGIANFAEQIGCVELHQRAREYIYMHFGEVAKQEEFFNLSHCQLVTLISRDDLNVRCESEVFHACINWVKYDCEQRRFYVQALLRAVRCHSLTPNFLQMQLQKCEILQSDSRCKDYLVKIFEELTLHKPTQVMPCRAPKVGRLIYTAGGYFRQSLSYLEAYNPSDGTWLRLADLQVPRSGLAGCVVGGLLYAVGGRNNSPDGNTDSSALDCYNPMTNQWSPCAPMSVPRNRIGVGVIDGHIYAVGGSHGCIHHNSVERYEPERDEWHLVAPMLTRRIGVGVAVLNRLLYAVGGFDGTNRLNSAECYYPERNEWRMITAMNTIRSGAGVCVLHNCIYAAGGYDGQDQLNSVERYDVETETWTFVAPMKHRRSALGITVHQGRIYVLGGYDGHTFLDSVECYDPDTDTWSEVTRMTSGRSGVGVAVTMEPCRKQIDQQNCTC
Chain of Voltage-dependent T-type calcium channel subunit alpha-1H (O95180 whole entry): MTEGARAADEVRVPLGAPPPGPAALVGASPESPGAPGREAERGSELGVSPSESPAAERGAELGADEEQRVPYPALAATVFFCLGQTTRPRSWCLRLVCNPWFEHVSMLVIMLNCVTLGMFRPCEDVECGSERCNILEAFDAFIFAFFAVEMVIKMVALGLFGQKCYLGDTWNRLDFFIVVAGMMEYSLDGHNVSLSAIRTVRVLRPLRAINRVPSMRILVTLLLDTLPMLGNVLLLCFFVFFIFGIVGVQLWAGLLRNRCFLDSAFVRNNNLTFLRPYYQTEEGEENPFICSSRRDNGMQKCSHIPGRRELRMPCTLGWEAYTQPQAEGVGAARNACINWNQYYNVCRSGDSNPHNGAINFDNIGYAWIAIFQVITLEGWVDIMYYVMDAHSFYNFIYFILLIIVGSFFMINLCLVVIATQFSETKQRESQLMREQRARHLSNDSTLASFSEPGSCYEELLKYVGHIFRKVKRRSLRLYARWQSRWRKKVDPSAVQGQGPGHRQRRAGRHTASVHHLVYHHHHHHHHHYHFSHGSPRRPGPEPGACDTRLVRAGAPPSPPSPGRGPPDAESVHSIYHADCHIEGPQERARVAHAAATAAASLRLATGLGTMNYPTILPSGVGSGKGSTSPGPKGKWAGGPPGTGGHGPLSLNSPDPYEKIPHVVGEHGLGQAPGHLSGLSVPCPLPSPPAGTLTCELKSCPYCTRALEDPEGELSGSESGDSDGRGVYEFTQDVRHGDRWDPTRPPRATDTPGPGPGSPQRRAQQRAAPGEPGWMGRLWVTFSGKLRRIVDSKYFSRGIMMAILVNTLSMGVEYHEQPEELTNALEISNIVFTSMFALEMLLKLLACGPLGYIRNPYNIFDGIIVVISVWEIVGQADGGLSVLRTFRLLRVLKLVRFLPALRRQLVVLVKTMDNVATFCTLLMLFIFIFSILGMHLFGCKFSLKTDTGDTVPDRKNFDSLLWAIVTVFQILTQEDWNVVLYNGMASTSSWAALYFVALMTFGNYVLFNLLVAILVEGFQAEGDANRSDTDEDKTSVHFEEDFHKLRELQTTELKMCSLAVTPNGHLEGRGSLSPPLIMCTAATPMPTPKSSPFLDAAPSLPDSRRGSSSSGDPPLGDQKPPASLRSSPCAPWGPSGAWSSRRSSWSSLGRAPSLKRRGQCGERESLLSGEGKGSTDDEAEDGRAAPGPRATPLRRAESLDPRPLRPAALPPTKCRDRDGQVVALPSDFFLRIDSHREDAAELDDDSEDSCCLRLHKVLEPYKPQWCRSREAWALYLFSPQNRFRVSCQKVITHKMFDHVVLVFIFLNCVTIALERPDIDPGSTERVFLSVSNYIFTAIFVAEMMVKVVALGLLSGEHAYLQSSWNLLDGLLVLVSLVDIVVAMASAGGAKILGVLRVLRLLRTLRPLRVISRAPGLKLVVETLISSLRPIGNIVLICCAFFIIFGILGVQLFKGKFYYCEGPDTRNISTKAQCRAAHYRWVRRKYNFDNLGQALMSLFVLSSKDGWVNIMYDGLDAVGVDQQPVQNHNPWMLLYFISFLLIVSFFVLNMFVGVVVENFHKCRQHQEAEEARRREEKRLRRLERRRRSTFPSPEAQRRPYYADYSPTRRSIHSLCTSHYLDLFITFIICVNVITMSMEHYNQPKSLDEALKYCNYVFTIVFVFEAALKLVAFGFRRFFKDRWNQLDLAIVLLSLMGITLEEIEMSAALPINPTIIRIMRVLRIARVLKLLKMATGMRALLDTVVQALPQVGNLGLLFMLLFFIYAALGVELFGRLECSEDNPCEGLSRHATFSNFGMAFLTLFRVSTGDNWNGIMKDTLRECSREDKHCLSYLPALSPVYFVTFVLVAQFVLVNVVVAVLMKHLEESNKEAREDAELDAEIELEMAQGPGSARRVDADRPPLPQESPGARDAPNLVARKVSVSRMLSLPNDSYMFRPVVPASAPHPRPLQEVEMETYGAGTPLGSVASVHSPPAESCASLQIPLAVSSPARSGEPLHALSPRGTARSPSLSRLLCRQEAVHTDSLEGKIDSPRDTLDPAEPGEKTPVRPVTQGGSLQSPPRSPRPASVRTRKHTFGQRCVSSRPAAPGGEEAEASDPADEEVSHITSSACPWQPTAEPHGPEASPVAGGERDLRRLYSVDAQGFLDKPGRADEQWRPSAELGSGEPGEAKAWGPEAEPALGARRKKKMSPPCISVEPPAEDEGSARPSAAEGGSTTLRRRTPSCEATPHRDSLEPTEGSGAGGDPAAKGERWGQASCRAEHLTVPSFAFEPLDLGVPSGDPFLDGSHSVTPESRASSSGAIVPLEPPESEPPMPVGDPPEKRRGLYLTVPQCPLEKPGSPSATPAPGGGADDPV

As to `CN1CCN(CC/C=C2/c3ccccc3Sc3ccc(S(=O)(=O)N(C)C)cc32)CC1` [THIOTHIXENE], the CC50 in [1] was > 40 µM (active); in the test on Vero [4], 15.2 µM (active). Also, the values for the IC50 (in the test on Vero [2]; in [3]) were > 25 µM (active) and > 20 µM (inactive), respectively.
With `Cc1ccc(-c2oc3ccccc3c(=O)c2O)cc1`, the IC50 (in [5]; on Exodeoxyribonuclease V) was > 119 µM (inactive) in each case. In addition, in test [6], the EC50 is > 195 µM (not active).
Consider `CCOC(=O)C1CCCN(C(=O)C2c3ccccc3Oc3ccccc32)C1` (configuration not stated), for which the EC50 in [7] was 38.8 µM (active). In addition, the figures for the AC50 on ORF 73 and on Keap1/Nrf2 were 127 µM (active) and > 52 µM (inactive), respectively.
With `CC(C)Cn1c(=O)[nH]c(=O)c2c(C(F)(F)F)cc(-c3ccccc3)nc21`, the EC50 in the test with HEK293 [8] and in the test on HEK293 [9] was > 59.6 µM (inactive) in each case.
Take `Clc1nss/c1=N\C1=NCCS1`: the IC50 in test [10] is > 100 µM (inactive).
As to `CCOc1nss/c1=N\c1ccc2ccccc2c1`, the IC50 in [10] was > 100 µM (inactive).
On to `Cc1cc2nc3c(=O)n(C4CCCCC4)c(=O)[nH]c3nc2cc1N`, for which the IC50 in [11] is reported as > 50 µM (not active). Besides, the AC50 on ORF 73 is 27.6 µM (active); on Keap1/Nrf2 it was 1.92 µM (active).
